The record followed here is US20230404963A1, “COMBINATIONS OF METAP2 INHIBITORS AND CD4/6 INHIBITORS FOR THE TREATMENT OF CANCER” (SynDevRx, Inc., priority 2020, published 2023).

SMILES strings stand for the structures.

For this test, the system named is MCF-7 tumors. Put plainly: Tumor Growth Inhibition in mice bearing MCF-7 tumors treated with Compound 1 and/or ribociclib. Format: in vivo. Here is the method: In the following experiment, mice bearing MCF-7 tumors were treated with either a vehicle control, Compound 1 alone, ribociclib alone, or with a combination of Compound 1 and ribociclib. MCF-7 were cultured in DMEM supplemented with 10% FBS. On the day of implantation, cells were washed 1× with phosphate-buffered saline (PBS). Following washing, cells were pelleted (5 min @ 1000 rpm, RT) and then counted with a hemocytometer. A cell concentration of 5×10^6 per mouse was re-suspended in an appropriate amount of PBS and 1:1 Matrigel. The suspension was kept on ice until implantation. Forty-eight hours prior to cell implantation, a 17-β estradiol pellet (0.36 mg 60-day slow release pellet) was be implanted subcutaneously between the scapulae of each Female Nu/j mouse. […] Once anesthetized, the mice were positioned ventral side up and anesthesia maintained through a fitted nose cone. The MCF-7 cell suspension was injected into the mammary fat pad at a volume of 100 μl containing 5×10^6 cells per mouse. Beginning 5 days post cell implantation, tumors were measured two times weekly (length×width) using a wireless digital calipers in conjunction with UWAVE-R to record measurements. […] The first day of treatment was designated “Day 1”. The mice were dosed either subcutaneously (SC), orally (PO), or by both dose routes, as put forth in the experimental designed summarized in Table 3. Doses were calculated by individual body weights. [table] The first group of mice (Group #1) were administered the vehicle control by oral administration once a day (QD). […] The fifth group of mice (Group #5) were administered Ribociclib at a dose of 35 mg/kg by oral administration once a day (QD). The sixth group of mice (Group #6) were administered Ribociclib at a dose of 70 mg/kg by oral administration once a day (QD). Twice weekly body weights and tumor measurements were recorded for the duration of the study. […] Upon euthanasia, a maximum volume terminal blood sample was obtained via cardiac puncture and split 200 μL in a K2EDTA MiniCollect tube for plasma separation and 420 μL in to a MiniCollect serum separator tube for half the mice for Clinical Chemistry analysis. For the other half of the mice, >200 μL of blood was collected in to K2EDTA MiniCollect tubes (LTT) for CBC analysis. The MiniCollect blood tubes for both plasma and serum were centrifuged at 8000 rpm for 5 minutes. The plasma was retained for biomarker analysis at −80° C., the serum and whole blood (LTT) were further analyzed. Additionally, tumor from the mice were dissected, weighed, and split into two pieces. Half of the tumor was placed into buffered formalin and stored at room temperature. Half of the tumor was snap-frozen in liquid N2, and stored at −80° C. […]

Turning to `CN(C)C(=O)c1cc2cnc(Nc3ccc(N4CCNCC4)cn3)nc2n1C1CCCC1` [Ribociclib, ribociclib], the TGI % runs as follows: (day 14, Group 5: Ribociclib 35 mg/kg PO QD) 57%; (day 14, Group 6: Ribociclib 70 mg/kg PO QD) 70%; (day 18, Group 5: Ribociclib 35 mg/kg PO QD (10 times the dose on day 16)) 60%; (day 18, Group 6: Ribociclib 70 mg/kg PO QD (10 times the dose on day 16)) 70%.
